In US20260035403A1, “NUCLEOSIDE LINE-1 INHIBITORS” (TRANSPOSON THERAPEUTICS, INC., priority 2022, published 2026):

System: human LINE-1
Assay: Human LINE-1 retrotransposition assay (HeLa cell-based dual-luciferase reporter)
Conditions: Human LINE-1 activity inhibition, HeLa cells, reporter plasmid pYX017, Firefly/Renilla, 72 h incubation
Outline: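 HeLa cells transfected with pYX017 dual-luciferase L1 reporter and treated with serially diluted compound (0.2% DMSO final) for 72 h at 37° C. Relative L1 activity as Firefly/Renilla ratio; IC50 from four-parameter logistic fit.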

| IC50 (Homo sapiens, HeLa, 72 h) | IC50 | Structure (SMILES) |
| --- | --- | --- |
| 23.4 µM |  | C#C[C@]1(CO)O[C@H](n2cnc3c(N)nc(N)nc32)C[C@@H]1O [compound 72, (2R,3S,5S)-5-(2,6-diamino-9H-purin-9-yl)-2-ethynyl-2-(hydroxymethyl)tetrahydrofuran-3-ol] |
| 0.013 µM |  | C=C[C@]1(CO)O[C@@H](n2cnc3c(O)nc(N)nc32)C[C@@H]1O [Cpd. No. 9, 2-amino-9-((2R,4S,5R)-4-hydroxy-5-(hydroxymethyl)-5-vinyltetrahydrofuran-2-yl)-1H-purin-6(9H)-one] |
| 1.7 µM |  | C=C[C@]1(CO)O[C@@H](n2cnc3c(O)ncnc32)C[C@@H]1O [Cpd. No. 100, 9-((2R,4S,5R)-4-hydroxy-5-(hydroxymethyl)-5-vinyltetrahydrofuran-2-yl)-9H-purin-6-ol] |
| 0.124 µM |  | C#C[C@]1(CO)O[C@@H](n2cnc3c(NC4CC4)nc(F)nc32)C[C@@H]1O [compound 85, (2R,3S,5R)-5-(6-(cyclopropylamino)-2-fluoro-9H-purin-9-yl)-2-ethynyl-2-(hydroxymethyl)tetrahydrofuran-3-ol] |
| 3.7 µM |  | C#C[C@]1(CO)O[C@H](n2cnc3c(N)ncnc32)C[C@@H]1O [compound 80, (2R,3S,5S)-5-(6-amino-9H-purin-9-yl)-2-ethynyl-2-(hydroxymethyl)tetrahydrofuran-3-ol] |
| 4.4 µM | 7.45 µM | C#C[C@]1(CO)OC(n2cnc3c(O)ncnc32)C[C@@H]1O (stereo partly drawn) [compound 81, 9-((4S,5R)-5-ethynyl-4-hydroxy-5-(hydroxymethyl)tetrahydrofuran-2-yl)-9H-purin-6-ol] |
| 6.2 µM |  | C=C[C@]1(CO)O[C@@H](n2cc(C#N)c(=O)[nH]c2=O)C[C@@H]1O [Cpd. No. 69, 1-((2R,4S,5R)-4-hydroxy-5-(hydroxymethyl)-5-vinyltetrahydrofuran-2-yl)-2,4-dioxo-1,2,3,4-tetrahydropyrimidine-5-carbonitrile] |
| > 50 µM |  | C=C[C@]1(CO)O[C@@H](n2cnc3c(NC4CC4)ncnc32)C[C@@H]1O [Cpd. No. 94, (2R,3S,5R)-5-(6-(cyclopropylamino)-9H-purin-9-yl)-2-(hydroxymethyl)-2-vinyltetrahydrofuran-3-ol] |
| > 50 µM |  | C#C[C@@]1(CO)C=C[C@H](n2cnc3c(Cl)ncnc32)O1 [compound 39, ((2R,5R)-5-(6-chloro-9H-purin-9-yl)-2-ethynyl-2,5-dihydrofuran-2-yl)methanol] |
| > 50 µM |  | Cc1cn([C@@H]2C[C@@H](O)[C@H](CO)O2)c(=O)[nH]c1=O [compound 95, 1-((2S,4R,5S)-4-hydroxy-5-(hydroxymethyl)tetrahydrofuran-2-yl)-5-methylpyrimidine-2,4(1H,3H)-dione] |

| Structure (SMILES) | IC50 (Homo sapiens, HeLa, 72 h) | IC50 |
| --- | --- | --- |
| C#C[C@]1(CO)OC(n2cnc(C(N)=O)n2)C[C@@H]1O (stereo partly drawn) [Cpd. No. 11, 1-((4S,5R)-5-ethynyl-4-hydroxy-5-(hydroxymethyl)tetrahydrofuran-2-yl)-1H-1,2,4-triazole-3-carboxamide] | > 50 µM |  |
